Results reported in patent US5045566A, “Novel imidate insecticides” (ICI Americas Inc., priority 1989, dated 1991).

Key:
Format in all cases: in vivo
[1] = tested on: Housefly [Musca domestica]; test: Housefly contact mortality in dishes (HF), 48 hours; conditions: μg of test compound per 25 female flies
Procedure, shortened: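 LC50, as μg compound per 25 female flies, comes from dosage-mortality curves with doses from 100 μg downward. Residues were made by evaporating acetone plus 0.01% peanut oil in dishes, onto which 1-2-day-old females were caged; deaths were counted after 48 hours.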

[2] = tested on: Black Bean Aphid [Aphis fabae (Scop.)]; test: Black bean aphid spray test on nasturtium (BBA), 48 hours; conditions: percent of test compound in sprayed solution
Procedure, shortened: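 LC50, given as percent test compound in the sprayed liquid, was calculated from dosage-mortality curves using concentrations from 0.05% downward. Sprays in 50:50 acetone-water went to runoff on ~5 cm nasturtiums carrying 25-50 aphids of mixed ages, one day after infestation. Deaths were counted 48 h later under greenhouse conditions.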

[3] = tested on: Tobacco Budworm [Heliothis virescens (Fabricius)] eggs; test: Tobacco budworm eggs (TBW-E); conditions: percent in solution; 2-day old eggs
Procedure, shortened: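 LC50 values (percent test compound in the dip solution) were calculated from dosage-mortality curves. Egg patches, 2 days old, were dipped in acetone solutions at concentrations from 0.1% downward and held at 78° F on rearing medium until control larvae hatched and fed.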

[4] = tested on: Cabbage Looper [Trichoplusia ni (Hubner)]; test: Cabbage looper leaf dip (CL), 3-5 days; conditions: percent in solution, second-instar larvae
Procedure, shortened: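 Leaf dip, squash cotyledons, 50-50 acetone-water, top dose 0.1% and lower. 5 second-instar larvae/dish, moist filter paper, high-humidity chamber. Mortality at 3-5 d; LC50 (% in solution) from dosage-mortality curves.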

[5] = tested on: Maize weevil [Sitophilus zeamais (Motschulsky)]; test: Maize weevil on dipped corn seeds (MW), 48 hours; conditions: percent in solution, adult weevils
Description: The compounds in Tables 1 and 2 above were tested for insecticidal activity using the following testing procedures. LC50 values, based on the results of these tests and calculated according to dosage-mortality curves, are expressed in Table 3.
Maize weevil [Sitophilus zeamais (Motschulsky)]:
Test compounds were diluted in a 50:50 acetone:water solution. Four corn seeds [Zea mays (L.)] which had been immersed in test solutions for 2-3 seconds and allowed to dry were placed in containers together with 10 adult weevils. The containers were covered and kept at a temperature of about 25° C. Mortality was recorded after 48 hours. Test concentrations ranged from 0.01% down to that at which 50% mortality occurred. The LC50 values are expressed below in Table 3 under the heading "MW" in terms of percent of the test compound in solution.

| SMILES | LC50 HF [1] [µg] | LC50 BBA [2] [%] | LC50 TBW E (eggs) [3] [%] | LC50 CL [4] [%] | LC50 MW [5] [%] |
| --- | --- | --- | --- | --- | --- |
| COc1ccc(N=C(OCc2ccc(F)c(Oc3ccc(F)cc3)c2)C(C)C)cc1Cl [Compound 408] | < 100 | 0.0005 | 0.02 | 0.0015 | > 0.01 |
| CCc1ccc(N=C(OCc2cccc(Oc3ccccc3)c2)C(C)(C)C)cc1 [Compound 163] | > 100 | > 0.05 | > 0.1 | 0.004 | > 0.01 |
| COc1ccc(N=C(OCc2ccc(F)c(Oc3ccccc3)c2)C(C)C)cc1Cl [Compound 409] | < 100 | 0.0005 | 0.025 | 0.0017 | > 0.01 |
| CC(C)C(=Nc1cccc(Br)c1)OCc1cccc(Oc2ccc(Cl)cc2)n1 [Compound 557] | < 100 | 0.0015 | > 0.1 | 0.0004 | > 0.01 |
| CC(C)C(=Nc1ccc(F)c(I)c1)OCc1ccc(F)c(Oc2ccccc2)c1 [Compound 334] | 9 | 0.0006 | 0.013 | 0.0007 | > 0.01 |
| CC(C)C(=Nc1cccc(Cl)c1)OCc1ccc(F)c(Oc2ccc(F)cc2)c1 [Compound 341] | 4 | 0.0005 | 0.023 | 0.0005 | > 0.01 |
| CC(C)C(=Nc1ccc(OCC(F)(F)F)c(Cl)c1)OCc1ccc(F)c(Oc2ccccc2)c1 [Compound 424] | > 100 | 0.002 | 0.035 | 0.00038 | > 0.01 |
| CC(C)C(=Nc1ccc(OCC(F)(F)F)cc1)OCc1ccc(F)c(Oc2ccccc2)c1 [Compound 422] | < 100 | > 0.05 | 0.05 | 0.00075 | > 0.01 |
| CC(C)C(=Nc1cccc(OC(F)(F)F)c1)OCc1ccc(F)c(Oc2ccccc2)c1 [Compound 437] | < 100 | 0.0003 | 0.025 | 0.00075 | > 0.01 |
| CC(C)C(=Nc1ccc(OCC(F)(F)F)c(F)c1)OCc1cccc(Oc2ccc(Cl)cc2)c1 [Compound 429] | > 100 | 0.005 | < 0.1 | 0.0017 | > 0.01 |
| Cc1ccc(N=C(OCc2cccc(Oc3ccc(F)cc3)c2)C(C)C)cc1Cl [Compound 402] | < 100 | 0.0006 | > 0.1 | > 0.1 | > 0.01 |
| CC(C)C(=Nc1ccc(Cl)c(C(F)(F)F)c1)OCc1ccc(F)c(Oc2ccccc2)c1 [Compound 388] | < 100 | 0.0006 | > 0.1 | 0.0012 | > 0.01 |
| Cc1ccc(N=C(OCc2ccc(F)c(Oc3ccc(Cl)cc3)c2)C(C)C)cc1Cl [Compound 404] | < 100 | 0.002 | 0.025 | > 0.1 | > 0.01 |
| CCOc1ccc(N=C(OCc2ccc(F)c(Oc3ccccc3)c2)C(C)C)cc1F [Compound 439] | > 100 | 0.0003 | > 0.1 | 0.00045 | > 0.01 |
| CC(C)C(=Nc1ccc(F)c(Br)c1)OCc1ccc(F)c(Oc2ccc(Cl)cc2)c1 [Compound 379] | < 100 | 0.0006 | 0.02 | 0.00075 | > 0.01 |
| C=C(C)C(=Nc1ccc(C(F)(F)F)cc1)OCc1cccc(Oc2ccc(F)cc2)c1 [Compound 442] | < 100 | 0.001 | 0.035 | 0.0007 | > 0.01 |
| C=C(C)C(=Nc1ccc(F)c(Cl)c1)OCc1cccc(Oc2ccccc2)c1 [Compound 417] | < 100 | 0.004 | 0.04 | 0.0008 | > 0.01 |

| SMILES | LC50 HF [1] [µg] | LC50 BBA [2] [%] | LC50 TBW E (eggs) [3] [%] | LC50 CL [4] [%] | LC50 MW [5] [%] |
| --- | --- | --- | --- | --- | --- |
| CC(C)C(=Nc1ccc(Cl)c(C(F)(F)F)c1)OCc1cccc(Oc2ccccc2)n1 [Compound 555] | < 100 | 0.0035 | > 0.1 | 0.002 | > 0.01 |
| CC(C)C(=Nc1cccc(Br)c1)OCc1ccc(F)c(Oc2ccc(Cl)cc2)c1 [Compound 386] | < 100 | 0.002 | > 0.1 | 0.0012 | > 0.01 |
| CC(C)C(=Nc1cccc(I)c1)OCc1cccc(Oc2ccc(Cl)cc2)c1 [Compound 389] | < 100 | 0.003 | > 0.1 | 0.00069 | > 0.01 |
| CC(C)C(=Nc1ccc(Br)c(Br)c1)OCc1ccc(F)c(Oc2ccc(F)cc2)c1 [Compound 383] | < 100 | 0.0006 | 0.038 | 0.00029 | > 0.01 |
| C=C(C)C(=Nc1ccc(F)c(Cl)c1)OCc1ccc(F)c(Oc2ccccc2)c1 [Compound 416] | < 100 | 0.0035 | 0.018 | 0.00027 | > 0.01 |
| Cc1cc(N=C(OCc2ccc(F)c(Oc3ccc(Cl)cc3)c2)C(C)C)ccc1Br [Compound 407] | > 100 | 0.0007 | 0.05 | > 0.1 | > 0.01 |
| Cc1ccc(N=C(OCc2ccc(F)c(Oc3ccc(Cl)cc3)c2)C(C)C)cc1C [Compound 406] | < 100 | 0.001 | < 0.1 | > 0.1 | > 0.01 |
| CC(C)C(=Nc1ccc(Br)c(Br)c1)OCc1ccc(F)c(Oc2ccccc2)c1 [Compound 384] | < 100 | 0.0008 | 0.025 | > 0.1 | > 0.01 |
| COc1ccc(N=C(OCc2ccc(F)c(Oc3ccc(Cl)cc3)c2)C(C)C)cc1 [Compound 412] | < 100 | 0.0032 | > 0.1 | > 0.1 | > 0.01 |
| C=C(C)C(=Nc1ccc(C(F)(F)F)cc1)OCc1cccc(Oc2ccc(Cl)cc2)n1 [Compound 560] | < 100 | 0.0025 | < 0.1 | 0.0015 | > 0.01 |
| Cc1cc(N=C(OCc2ccc(F)c(Oc3ccc(F)cc3)c2)C(C)C)ccc1F [Compound 396] | < 100 | 0.0002 | < 0.1 | 0.0017 | > 0.01 |
| CC(C)C(=Nc1cccc(C(F)(F)F)c1)OC(C)c1cccc(Oc2ccccc2)c1 (stereo not drawn) [Compound 459] | > 100 | > 0.05 | 0.1 | 0.008 | > 0.01 |
| CC(C)c1ccc(N=C(OCc2cccc(Oc3ccccc3)c2)C2CCC2)cc1 [Compound 339] | > 100 | 0.03 | > 0.1 | 0.017 | > 0.01 |
| C=C(C)C(=Nc1ccc(C(F)(F)F)cc1)OCc1cccc(Oc2ccccc2)c1 [Compound 430] | < 100 | 0.0006 | 0.032 | 0.001 | 0.004 |
| CC(C)C(=Nc1ccc(Cl)cc1)OCc1cccc(Oc2ccc(Cl)cc2)n1 [Compound 554] | > 100 | 0.003 | 0.04 | 0.00075 | > 0.01 |
| CC(C)C(=Nc1ccc(F)c(Cl)c1)OCc1ccnc(Oc2ccccc2)c1 [Compound 510] | 54 | 0.05 | > 0.1 | 0.017 | > 0.01 |
